One data set concerns the target T1, UGT1A1 (Homo sapiens, UniProt P22309).
T1 construct: ultrapooled human liver microsomes (0.2 mg/mL); from tissue; host or cells: human liver microsomes (ultrapooled)
T1 sequence (P22309 26-533): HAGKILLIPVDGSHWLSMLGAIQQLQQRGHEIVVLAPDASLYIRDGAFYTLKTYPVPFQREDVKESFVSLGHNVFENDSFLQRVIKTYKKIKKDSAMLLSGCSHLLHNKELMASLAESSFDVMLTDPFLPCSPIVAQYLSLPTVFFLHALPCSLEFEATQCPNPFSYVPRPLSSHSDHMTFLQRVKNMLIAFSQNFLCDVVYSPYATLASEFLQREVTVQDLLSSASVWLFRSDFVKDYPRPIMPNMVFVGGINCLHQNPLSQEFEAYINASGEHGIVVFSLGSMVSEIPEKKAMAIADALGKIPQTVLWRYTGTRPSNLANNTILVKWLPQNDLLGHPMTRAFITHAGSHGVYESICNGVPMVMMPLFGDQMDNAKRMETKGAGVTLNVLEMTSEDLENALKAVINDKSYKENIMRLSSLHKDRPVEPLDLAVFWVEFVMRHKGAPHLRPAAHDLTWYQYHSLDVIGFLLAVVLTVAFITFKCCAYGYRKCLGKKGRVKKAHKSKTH
Kind of data set: Inhibition of UGT1A1-catalyzed SN-38 glucuronidation in ultrapooled human liver microsomes. It is filed as in vitro ADME. As to the method: The inhibitory potential of mertansine on UGT1A1, UGT1A3, UGT1A4, UGT1A6, UGT1A9, and UGT2B7 activities was evaluated using liquid chromatography–tandem mass spectrometry (LC-MS/MS) with a cocktail of UGT substrates and ultrapooled human liver microsomes. Each incubation mixture was prepared to a final volume of 100 μL as follows: ultrapooled human liver microsomes (0.2 mg/mL), 5 mM UDPGA, 10 mM magnesium chloride, alamethicin (25 μg/mL), 50 mM Tris buffer (pH 7.4), various concentrations of mertansine in methanol (final concentrations of 0.01–50 μM), and the cocktail sets of UGT enzyme-specific substrates. Two cocktail sets were used: set A contained 0.5 μM SN-38 for UGT1A1, 2 μM chenodeoxycholic acid for UGT1A3, and 0.5 μM trifluoperazine for UGT1A4; and set B contained 1 μM N-acetylserotonin for UGT1A6, 0.2 μM mycophenolic acid for UGT1A9, and 1 μM naloxone for UGT2B7. The reactions were initiated by adding UDPGA and incubated in a shaking water bath for 60 min at 37 °C. […] Next, 50 μL of each supernatant of sets A and B was mixed, and aliquots (5 μL) were analyzed using LC-MS/MS. […]
The LC-MS/MS system was comprised of an Agilent 6495 triple quadrupole mass spectrometer coupled with an Agilent 1290 Infinity system (Agilent Technologies, Wilmington, DE, USA). […] The electrospray ionization (ESI) source settings in both positive and negative ion modes were as follows: gas temperature, 200 °C; gas flow, 14 L/min; nebulizer, 40 psi; sheath gas temperature, 380 °C; sheath gas flow, 11 L/min; capillary voltage, 4500 V; and nozzle voltage, 500 V. Each metabolite was quantified via selected reaction monitoring in the negative ion mode (chenodeoxycholic acid 24-acyl-β-glucuronide, m/z 567.1 to 391.2; mycophenolic acid β-D-glucuronide, m/z 495.0 to 319.0; propofol glucuronide (IS), m/z 353.0 to 177.0) and in the positive ion mode (SN-38 glucuronide, m/z 568.9 to 392.9; trifluoperazine N-β-D-glucuronide, m/z 583.9 to 407.9; N-acetylserotonin β-D-glucuronide, m/z 394.0 to 219.0; naloxone 3-β-D-glucuronide, m/z 503.9 to 309.9; meloxicam (IS), m/z 351.9 to 115.0). […]

For data set [1], the system named is CYP1A2 mRNA (suppression of expression). Kind of data set: CYP1A2 mRNA level in human hepatocytes after 48 h treatment (RT-PCR). It is filed as cell-based. Particulars: 1.25–2500 nM. The text has this:
12.5 (Systat Software, Inc.; San Jose, CA, USA). […] 1.1 (Systat Software, Inc.).

In the next data set the test system is CYP3A4. The procedure: Samples were incubated for 48 h at 37 °C in 5% CO2, and the medium was exchanged with 250 μL of fresh medium containing drugs or the vehicle every 24 h.
The effects of mertansine on CYP1A2, CYP2B6, and CYP3A4 activities were evaluated. […] Mixtures were vortexed for 2 min and then centrifuged at 13,000 g for 4 min at 4 °C. The supernatant (40 µL) was diluted with 60 µL of deionized water and then mixed for 2 min by vortexing. An aliquot (5 µL) was analyzed using LC-MS/MS [37], and CYP1A2, CYP2B6, and CYP3A4 enzyme activities were expressed as formation rates (pmol/million cells/min).
The percentage changes in enzymatic activities were calculated as (CYP activity with test compound treatment/CYP activity with vehicle control treatment) × 100. The IC50 (the concentration of the inhibitor needed for half-maximal inhibition) values were calculated using SigmaPlot ver. […] Ki (the inhibition constant) and the inhibition mode of UGT1A1, UGT1A3, and UGT1A4 activities were determined using Enzyme Kinetics ver. 1.1 (Systat Software, Inc.).

“Also recorded” adds a separate entry of the source.

`COc1cc2cc(c1Cl)N(C)C(=O)CC(OC(=O)C(C)N(C)C(=O)CCS)C1(C)OC1C(C)C1CC(O)(NC(=O)O1)C(OC)C=CC=C(C)C2` (stereo not drawn) [mertansine, Mertansine]: at UGT1A1 (human liver microsomes, Dixon plot), the “Inhibition Mode, UGT1A1” value is on record as “noncompetitively inhibited; also recorded: noncompetitive inhibitor”. The same compound came in with a Ki at UGT1A1 (human liver microsomes, SN-38 0.2–2 µM) of 13.5 µM. For the same compound, the IC50 against UGT1A1 (ultrapooled human liver microsomes, 0.5 µM SN-38 (cocktail)) stood at 16.2 µM. Besides, the IC50 at 48 h in data set [1] (Mean ± SD of three human hepatocyte lots, 48 h) amounted to 93.7 ± 109 nM; in data set [1] (human hepatocytes Lot 319, 48 h), 220 nM; in data set [1] (human hepatocytes Lot 321, 48 h) it was 34.3 nM; in data set [1] (human hepatocytes Lot 361, 48 h) it was 27.3 nM. Moreover, in the data set on CYP3A4 (human, hepatocytes), the “Mean decrease of CYP3A4-mediated midazolam 1′-hydroxylase activity” value is 39.7%. Also, the “Decrease of CYP3A4-mediated midazolam 1′-hydroxylase activity compared to vehicle” value with CYP3A4 (mertansine 48 h, three human hepatocytes) is 30.8–62.7%.

The record behind these values is PMC7150891, “Mertansine Inhibits mRNA Expression and Enzyme Activities of Cytochrome P450s and Uridine 5′-Diphospho-Glucuronosyltransferases in Human Hepatocytes and Liver Microsomes” (Pharmaceutics, 2020).
